What is called inhibition is how much of the control response was suppressed. Higher therefore signals a response far below the control.

Results on three compounds are retold here after patent US5244908A, “Imidazopyridine derivatives and their pharmaceutical use” (Takeda Chemical Industries, Ltd., priority 1990, dated 1993).

The subject of test [1] is endothelial cells (HUVE cells). The experiment in a line: Effect on growth of endothelial cells (HUVE cells, basic FGF, MTT method). In kind it is cell-based. The note with it: Homo sapiens, Endothelial cell, 72 h, basic FGF 2 ng/ml, 3 days, read-out: IC50 (concentration inhibiting growth of endotherial cells by 50%). The procedure:
This experiment was conducted by using endothelial cells (HUVE cells) obtained from human umbilical vein. […] After 24 hours, human recombinant basic FGF (endotherial cell growth factor) was added thereto in the final concentration of 2 ng/ml and a test compound was further added, followed by cultivation for 3 days.
(Tetrazolium assays rely on reduction of a dye to a coloured formazan, in cell work by metabolically active cells.)

Test [2] concerns experimental ischemic disorders. The conditions noted are these: in vivo; cited from earlier work.
The target in a further test is calmodulin (Bos taurus, UniProt P62157). The test can be described thus: Calmodulin inhibitory activity (calmodulin-activated cyclic nucleotide phosphodiesterase, [3H]cGMP). In kind it is biochemical. The note with it: 10^-5 M.
Test [3] has as its system spontaneous hypertensive rat (SHR). The experiment in a line: Hypotensive activity in spontaneous hypertensive rat (SHR), Plethysmograph method. In kind it is in vivo. The conditions noted are these: SHR male rats, oral, 100 mg/kg. The method, then: Hypotensive activity in spontaneous hypertensive rat (SHR)
SHR male rats of twenty weeks old were used. They were warmed in an incubator at 37° C. for 5 minutes and the measurement was conducted according to Plethysmograph method. Medicines (the compounds in the above Examples) were suspended in gum arabic-water and were orally administered in an amount of 2.5 ml/kg. Blood pressure was measured before administration of medicines, at 1 hour and at 5 hours after administration, and the change of the value from that before administration was determined, respectively.

The test system of another test is rat heart. The test can be described thus: Effect on incidence of arrhythmia caused by ischemia and following reperfusion in rat heart. In kind it is in vivo. The note with it: 1 hour before ligation, until 10 minutes after reperfusion. The procedure: Effect on incidence of arrhythmia caused by ischemia and following reperfusion in rat heart
Male Sprague Dawley rats (Japan Clea) of 9 to 10 weeks old were anesthetized with 50 mg/kg (i.p.) of sodium pentobarbital. The heart was exposed by a left thoractomy under artificial ventilation with room air and silk suture was placed under the main left coronary artery (LAD) to ligate for 5 minutes. Then, the ligature was released again for reperfusion. The incidence of ventricular tachycardia (VT), ventricular fibrillation (VF) and cardiac arrest (CA) caused until 10 minutes after reperfusion were noted. Medicines (compounds obtained in the above Examples) were orally administered (5 ml/kg) at 1 hour before tightening the ligature. The effect of medicines were estimated in comparison with the frequency of a group received a vehicle according to X^2 -test.

The subject of a further test is rat kidneys. The experiment in a line: Effect on acute renal failure caused by ischemia and following reperfusion in rat kidneys. In kind it is in vivo. The note with it: 1 hour before occlusion, 20 hours after reperfusion. The procedure: Effect on acute renal failure caused by ischemia and following reperfusion in rat kidneys.
SD rats (male) of 6 to 7 weeks old were anesthetized with pentobarbital sodium (50 mg/kg, i.p.) and bilateral renal arteries were ligated. After 45 minutes, a clip was removed to reperfuse. After 20 hours, blood was collected from abdominal aorta under anesthesia with pentobarbital sodium and blood urea nitrogen (BUN) was measured. Medicines (compounds obtained in the above Examples) were orally administered (5 ml/kg) 1 hour before occulusion of renal artery.

With `CC(C)OC(=O)NCCSc1cccc2nccn12` [21'], the IC50 in test [1] is 5 µM.
Regarding `CN(C)CCCN1c2ccccc2Sc2ccc(Cl)cc21` [chlorpromazine], the “effect on experimental ischemic disorders (in words)” value in test [2] was “effective for experimental ischemic disorders”.
Consider `CS(=O)(=O)NCCSc1cccc2nccn12` [Compound 1, 5-[2-(methylsulfonylamino)ethylthio]imidazo[1,2-a]pyridine], for which the inhibition at 10 µM against calmodulin is 94%. Further, the “Change of blood pressure, 1 hour” value in test [3] (1 hour after administration) is -11.2 mmHg. In addition, the “Change of blood pressure, 5 hours” value in test [3] (5 hours after administration) is reported as -11.5 mmHg. In addition, the “CA (Frequency), cardiac arrest” value is reported as 1/4 in the test on rat heart (10 mg/kg oral) and 0/4 in the test on rat heart (30 mg/kg oral). For the same compound, the “VF (Frequency), ventricular fibrillation” value is recorded as 2/4 in the test with rat heart (10 mg/kg oral) and 1/4 in the test with rat heart (30 mg/kg oral). In addition, the figures for the “VT (Frequency), ventricular tachycardia” value in the test with rat heart (10 mg/kg oral) and in the test on rat heart (30 mg/kg oral) were 2/4 and 1/4, respectively. In addition, the Blood urea nitrogen with rat kidneys (10 mg/kg oral) came out at 83.3 ± 20.4 mg/dL; in the test with rat kidneys (30 mg/kg oral), 71.1 ± 11.4 mg/dL; in the test with rat kidneys (50 mg/kg oral), 65.6 ± 5.1 mg/dL.
